Experimental data published in the NIST ThermoML archive (doi:10.1021/je200668a).
Where “and” joins values, the source holds several entries; their conditions need not be identical. Identical values can stand only once.

Conditions: Liquid, Pulse Transmission

O [water]
Conditions	speed of sound
288.13 K, 250900 kPa	1878.5 m/s
288.13 K, 300400 kPa	1955.1 m/s
288.13 K, 701000 kPa	2453.9 m/s
288.14 K, 150300 kPa	1718.5 m/s
288.15 K, 50900 kPa	1550.1 m/s
288.15 K, 349200 kPa	2025.9 m/s
288.15 K, 499800 kPa	2225.2 m/s
288.16 K, 99800 kPa	1631.8 m/s
288.16 K, 200200 kPa	1800.9 m/s
288.17 K, 99700 kPa	1633.2 m/s
288.17 K, 401300 kPa	2098 m/s
288.17 K, 561300 kPa	2300.1 m/s
288.17 K, 640700 kPa	2391.2 m/s
297.74 K, 702200 kPa	2448.7 m/s
297.78 K, 653200 kPa	2402.2 m/s
297.79 K, 250300 kPa	1895.5 m/s
297.79 K, 549700 kPa	2286.1 m/s
297.8 K, 499500 kPa	2225.4 m/s
297.82 K, 601700 kPa	2346.1 m/s
297.83 K, 300300 kPa	1967.2 m/s
297.84 K, 200200 kPa	1819.5 m/s
297.88 K, 50600 kPa	1580.3 m/s
297.88 K, 151000 kPa	1743.2 m/s
297.89 K, 400300 kPa	2101.3 m/s
297.9 K, 100 kPa	1493.8 m/s
297.9 K, 450500 kPa	2165.2 m/s
297.99 K, 99500 kPa	1660.6 m/s
298.05 K, 349200 kPa	2035.4 m/s
298.07 K, 699900 kPa	2450.3 m/s
298.09 K, 659800 kPa	2412.6 m/s
298.1 K, 599200 kPa	2344.5 m/s
298.11 K, 551300 kPa	2287 m/s
298.12 K, 350600 kPa	2038.7 m/s
298.15 K, 400500 kPa	2103.8 m/s
298.15 K, 500000 kPa	2229.8 m/s
298.16 K, 200800 kPa	1821.6 m/s
298.16 K, 300500 kPa	1968.4 m/s
298.18 K, 450300 kPa	2167.6 m/s
298.2 K, 50100 kPa	1580.4 m/s
298.24 K, 400400 kPa	2102.3 m/s
298.27 K, 150700 kPa	1743.9 m/s
298.28 K, 350900 kPa	2038.4 m/s
298.29 K, 249200 kPa	1894.6 m/s
298.3 K, 150800 kPa	1745 m/s
298.3 K, 299000 kPa	1965.7 m/s
298.31 K, 100400 kPa	1662.8 m/s
298.31 K, 250700 kPa	1897.4 m/s
298.34 K, 50200 kPa	1580.9 m/s
298.34 K, 199800 kPa	1820.7 m/s
298.35 K, 100 kPa	1492.8 m/s
298.36 K, 100400 kPa	1664.2 m/s
298.37 K, 100 kPa	1492.2 m/s
298.38 K, 699000 kPa	2448 m/s
298.41 K, 651700 kPa	2400.7 m/s
298.42 K, 449900 kPa	2165.5 m/s
298.43 K, 499700 kPa	2225.8 m/s
298.43 K, 549200 kPa	2287.7 m/s
298.45 K, 601800 kPa	2347.7 m/s
308.06 K, 400400 kPa	2112.6 m/s
308.07 K, 449300 kPa	2173.3 m/s
308.08 K, 300500 kPa	1983.1 m/s
308.09 K, 349400 kPa	2048.7 m/s
308.09 K, 400000 kPa	2112.1 m/s
308.09 K, 499500 kPa	2230.5 m/s
308.09 K, 559700 kPa	2301.4 m/s
308.09 K, 650800 kPa	2402.2 m/s
308.09 K, 703600 kPa	2441.6 m/s
308.1 K, 250500 kPa	1913.4 m/s
308.1 K, 299900 kPa	1983.2 m/s
308.1 K, 350900 kPa	2048.9 m/s
308.1 K, 601700 kPa	2349.8 m/s
308.1 K, 698500 kPa	2446.7 m/s
308.11 K, 100 kPa	1515.3 m/s
308.11 K, 160100 kPa	1781.2 m/s
308.11 K, 650700 kPa	2402.3 m/s
308.12 K, 149900 kPa	1766.1 m/s
308.12 K, 200400 kPa	1840.6 m/s
308.12 K, 200700 kPa	1840.1 m/s
308.12 K, 299900 kPa	1984.1 m/s
308.12 K, 400700 kPa	2110.8 m/s
308.13 K, 51000 kPa	1606 m/s
308.13 K, 349800 kPa	2049.7 m/s
308.13 K, 599600 kPa	2344.5 m/s
308.14 K, 99700 kPa	1690.4 m/s
308.14 K, 150300 kPa	1766.1 m/s
308.14 K, 449900 kPa	2171.7 m/s
308.14 K, 701600 kPa	2447.4 m/s
308.15 K, 100 kPa	1514.3 m/s and 1514.1 m/s
308.15 K, 250800 kPa	1913.1 m/s
308.15 K, 450900 kPa	2174.9 m/s
308.15 K, 499400 kPa	2232.5 m/s
308.16 K, 111000 kPa	1706.1 m/s
308.16 K, 639800 kPa	2388.9 m/s
308.17 K, 50300 kPa	1604.9 m/s
308.17 K, 99800 kPa	1690 m/s
308.17 K, 200300 kPa	1839.8 m/s
308.17 K, 549700 kPa	2292.4 m/s
308.19 K, 250500 kPa	1913.9 m/s
308.19 K, 549600 kPa	2291 m/s
308.21 K, 499700 kPa	2232.3 m/s
308.22 K, 50600 kPa	1605.5 m/s
308.22 K, 599600 kPa	2346.6 m/s
318.02 K, 200600 kPa	1860.6 m/s
318.02 K, 350800 kPa	2062 m/s
318.06 K, 399700 kPa	2122.5 m/s
318.07 K, 99500 kPa	1705.7 m/s
318.09 K, 349600 kPa	2062.1 m/s
318.1 K, 200400 kPa	1860.8 m/s
318.1 K, 299400 kPa	1995.8 m/s
318.1 K, 300100 kPa	1998.9 m/s
318.1 K, 349600 kPa	2061 m/s
318.1 K, 449800 kPa	2181.8 m/s
318.11 K, 150100 kPa	1787.1 m/s
318.11 K, 160100 kPa	1802.4 m/s
318.11 K, 250600 kPa	1930.2 m/s
318.12 K, 50400 kPa	1623.1 m/s
318.12 K, 299900 kPa	1996.4 m/s
318.12 K, 599100 kPa	2350.3 m/s
318.12 K, 599600 kPa	2346.3 m/s
318.12 K, 641800 kPa	2388.1 m/s
318.13 K, 250400 kPa	1930.2 m/s
318.13 K, 399600 kPa	2121.7 m/s
318.14 K, 111200 kPa	1725.7 m/s
318.14 K, 449700 kPa	2182.1 m/s
318.14 K, 701800 kPa	2454.2 m/s
318.15 K, 250000 kPa	1930.6 m/s
318.15 K, 651000 kPa	2405.8 m/s
318.16 K, 100 kPa	1530.9 m/s
318.16 K, 401300 kPa	2123.6 m/s
318.16 K, 549200 kPa	2297.1 m/s
318.16 K, 559300 kPa	2305.4 m/s
318.17 K, 50000 kPa	1622.5 m/s
318.17 K, 499100 kPa	2239.1 m/s
318.17 K, 499800 kPa	2240.9 m/s
318.17 K, 549400 kPa	2295.5 m/s
318.18 K, 450600 kPa	2183.6 m/s
318.18 K, 702400 kPa	2453.8 m/s
318.19 K, 200200 kPa	1861.8 m/s
318.19 K, 499900 kPa	2239.9 m/s
318.19 K, 651200 kPa	2401.2 m/s
318.19 K, 701700 kPa	2454.7 m/s
318.21 K, 99700 kPa	1706.9 m/s
318.21 K, 602100 kPa	2348.1 m/s
318.22 K, 150400 kPa	1788.9 m/s
318.26 K, 49100 kPa	1621.2 m/s
327.92 K, 641400 kPa	2396.1 m/s
327.96 K, 560500 kPa	2312.8 m/s
327.97 K, 701700 kPa	2451.4 m/s
328.07 K, 550700 kPa	2301.2 m/s
328.08 K, 109200 kPa	1735.6 m/s
328.08 K, 350700 kPa	2075.4 m/s
328.08 K, 499600 kPa	2246.7 m/s
328.1 K, 150000 kPa	1799.2 m/s
328.12 K, 100100 kPa	1720.7 m/s
328.13 K, 200200 kPa	1875.4 m/s
328.14 K, 50900 kPa	1636.9 m/s
328.14 K, 300800 kPa	2013.9 m/s
328.14 K, 450900 kPa	2192 m/s
328.15 K, 300000 kPa	2015.6 m/s
328.16 K, 159900 kPa	1816 m/s
328.16 K, 351700 kPa	2077.1 m/s
328.16 K, 399700 kPa	2133 m/s
328.16 K, 499400 kPa	2246.5 m/s
328.16 K, 601200 kPa	2355.9 m/s
328.16 K, 601900 kPa	2353.3 m/s
328.16 K, 700100 kPa	2453.2 m/s
328.17 K, 50600 kPa	1636.4 m/s
328.17 K, 200900 kPa	1876.4 m/s
328.18 K, 250700 kPa	1946.5 m/s
328.19 K, 100 kPa	1541.1 m/s
328.19 K, 250700 kPa	1947.4 m/s
328.21 K, 449800 kPa	2189.2 m/s
328.21 K, 652700 kPa	2406.9 m/s
328.22 K, 400100 kPa	2137.3 m/s
328.27 K, 100 kPa	1542.1 m/s
328.49 K, 99800 kPa	1720.6 m/s
328.66 K, 650700 kPa	2404.5 m/s
328.69 K, 300000 kPa	2012.1 m/s
328.72 K, 200100 kPa	1874.3 m/s
328.72 K, 400500 kPa	2138.4 m/s
328.72 K, 551000 kPa	2304.7 m/s
328.73 K, 50900 kPa	1637.5 m/s
328.74 K, 449200 kPa	2194.3 m/s
328.76 K, 100 kPa	1543.9 m/s
328.76 K, 601300 kPa	2354.9 m/s
328.77 K, 350900 kPa	2076.6 m/s
328.77 K, 700400 kPa	2453.8 m/s
328.83 K, 150100 kPa	1799.9 m/s
328.9 K, 250100 kPa	1944.4 m/s
328.92 K, 499400 kPa	2250.4 m/s
337.66 K, 150000 kPa	1810.9 m/s
337.69 K, 350500 kPa	2086.1 m/s
337.69 K, 399100 kPa	2142.9 m/s
337.75 K, 200500 kPa	1886 m/s
337.8 K, 501100 kPa	2260 m/s
337.85 K, 300700 kPa	2024 m/s
337.87 K, 50100 kPa	1643.6 m/s
337.95 K, 100500 kPa	1731.6 m/s
338.02 K, 100 kPa	1547.4 m/s
338.04 K, 601100 kPa	2360.1 m/s
338.07 K, 650600 kPa	2410.2 m/s
338.12 K, 451000 kPa	2203.4 m/s
338.15 K, 250300 kPa	1956.7 m/s
338.22 K, 549600 kPa	2309.8 m/s
338.22 K, 700800 kPa	2455.7 m/s
349.03 K, 601700 kPa	2366 m/s
349.12 K, 500600 kPa	2267.1 m/s
349.18 K, 49900 kPa	1647.8 m/s
349.19 K, 100 kPa	1549 m/s
349.22 K, 150700 kPa	1818.4 m/s
349.22 K, 300400 kPa	2029.7 m/s
349.27 K, 549200 kPa	2313.8 m/s
349.28 K, 400700 kPa	2153 m/s
349.3 K, 250900 kPa	1965 m/s
349.32 K, 349800 kPa	2091.6 m/s
349.35 K, 450800 kPa	2209.4 m/s
349.41 K, 100400 kPa	1737.3 m/s
349.59 K, 651400 kPa	2412.5 m/s
349.68 K, 200700 kPa	1892.8 m/s
349.72 K, 704500 kPa	2445.1 m/s
